{"source": "patent US20200352912A1", "about": "“ANTIMICROBIAL COMPOSITIONS AND METHODS OF USING THE SAME” (The Board Of Supervisors Of Louisiana State University And …, priority 2018, published 2020)", "key": {"[1]": {"tested_on": "S. aureus mono-species biofilm", "assay": "biofilm formation on polystyrene (XTT, CFU)", "type": "cell-based, Staphylococcus aureus", "experimental": "The effect of L-161,982 on biofilm formation was tested. Mono- and dual-species C. albicans and/or S. aureus biofilms were grown on 96-well plates for 24 h with the indicated concentration of L-161, 982. After incubation, metabolic activity of biofilms was quantified by the XTT assay (A) and then biofilms were disrupted to determine live colony forming units (CFU) (B). The results are cumulative of three independent experiments with duplicate samples. Statistics was performed using One-way ANOVA with the Tukey post-hoc test for the XTT assay. The Mann-Whitney U test was used to analyze CFU data. Significance is indicated as follows: ns—not significant, *P<0.05; *** P<0.001. Error bars represent standard deviation.\nFollowing growth as described above, microbes were washed in phosphate-buffered saline (PBS) by centrifugation, counted on a hemocytometer, and adjusted to 2×10^7 CFU/ml in RPMI buffered with MOPS (165 mM). For monomicrobial biofilms, 50 μl of adjusted C. albicans or S. aureus culture was added to each well of a sterile 96-well cell culture polystyrene microtiter plate (1×10^6 CFU per well); to this, 50 μl of sterile RPMI+MOPS was added. For polymicrobial biofilms, 50 μl of each organism was added per well (1×10^6 CFU of each organism per well). Plates were incubated for 24 h at 37° C. to induce biofilm formation. Following confirmation of mature biofilm growth by macro- and microscopic examination, plates were washed once with 200 μl sterile saline and then 200 μl RPMI+MOPS containing L-161, 982 at various concentrations (6.25-200 μg/ml) added to each well. L-161, 982-free RPMI+MOPS was added to wells with and without microbes to serve as positive and negative controls, respectively. […]\nThe XTT reduction assay was used to determine the metabolic activity of biofilms following treatment with L-161, 982 (17). Briefly, wells were washed once in PBS, and plates incubated at 37° C. for 2 h with 200 μl XTT working reagent (0.5 mg/ml XTT and 1 μM Menadione) and the resulting absorbance measured at 490 nm on a microplate spectrophotometer. […]"}, "[2]": {"tested_on": "S. aureus", "assay": "generation of hydroxyl radicals (thiourea scavenger)", "type": "cell-based, Staphylococcus aureus", "settings": "50 μg/ml, 150 mM thiourea", "experimental": "(A) Effects of reactive oxygen species inhibitors. Growth of S. aureus was monitored for up to 6 h in medium alone or medium supplemented with 15 mM of Na-L-ascorbate, and/or 15 mM N-acetyl-L-cysteine, and/or 50 μg/ml L-161, 982. Data shown are representative of two independent experiments. (B) Effects of hydroxyl radical scavengers. Growth was monitored for 4 h in medium alone or medium supplemented with 50 μg/ml L-161, 982 or 1 mM H2O2 alone, plus 150 mM thiourea, or plus 500 μM 2,2′-dipyridyl.\nGeneration of hydroxyl radicals. Antibiotic induced hydroxyl radical production was measured as previously described (12). Overnight cultures of S. aureus were diluted 1:100 in TSB and grown for 3 h at 37° C. with shaking to mid-log phase. Cultures were diluted in TSB to OD600=0.05 and L-161, 982 was added at a final concentration of 50 µg/ml+/−H2O2 (1 mM; Sigma) or thiourea (150 mM; Sigma). Cultures were incubated at 37° C. with shaking and aliquots were removed at t(0) and at 1 h intervals duplicate, diluted 1:100 and optical density measured at 600 nm (OD600) or serially diluted and plated onto SDA and grown at 37° C. for 24 h for CFU enumeration."}, "[3]": {"tested_on": "S. aureus strain 43300", "assay": "hemolysis assay", "type": "cell-based, Staphylococcus aureus", "experimental": "(A) Macroscopic analysis of S. aureus hemolytic activity. S. aureus was spotted on Mueller-Hinton agar containing sheep blood and/or various concentrations of L-161, 982, and incubated at 37 C for 24 h (0, 25 50, 100) or 72 h (200). (B) Width of the zone of RBC clearance was measured at 4 points around each S. aureus area of growth in 2 independent replicates. * p<0.05 control vs. drug-treated.\nStrains and growth conditions. The methicillin-resistant S. aureus strain NRS383 was obtained from the Network on Antimicrobial Resistance in S. aureus (NARSA) data bank. As NRS383 has little or no hemolytic activity or pigmentation, S. aureus strain 43300 (ATCC) was used for the hemolysis and staphyloxanthin assays. Frozen stocks were obtained at −80° C. and streaked onto trypticase soy agar (TSA) plates at 37° C. prior to use. A single colony was transferred to 10 ml of trypticase soy broth (TSB) and shaken at 37° C. overnight. […]\nHemolysis Assay. Hemolytic activity was measured using Mueller-Hinton agar plates containing 5% defribinated sheep blood (Thermo Fisher)+/−L-161, 982 at a final concentration of 50 μg/ml. […] Plates were placed on a light box and digitally photographed and images were analyzed using Photoshop CS3. […] The width of each zone was measured at 0, 90, 180, 270° around growth spots (2-3 spots/group) using the ruler tool. […]"}, "[4]": {"target": "EP3 (Homo sapiens, UniProt P43115)", "sequence (P43115 whole entry)": "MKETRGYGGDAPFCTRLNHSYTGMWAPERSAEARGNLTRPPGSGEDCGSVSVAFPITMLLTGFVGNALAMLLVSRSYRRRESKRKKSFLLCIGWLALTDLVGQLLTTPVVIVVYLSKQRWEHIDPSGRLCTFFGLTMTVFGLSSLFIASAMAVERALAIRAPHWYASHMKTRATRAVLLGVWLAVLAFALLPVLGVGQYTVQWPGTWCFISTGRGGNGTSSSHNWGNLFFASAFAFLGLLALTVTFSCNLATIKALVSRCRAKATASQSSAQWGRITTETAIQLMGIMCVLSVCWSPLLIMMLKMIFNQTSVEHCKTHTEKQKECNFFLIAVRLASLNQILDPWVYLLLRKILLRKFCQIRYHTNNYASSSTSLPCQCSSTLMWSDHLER", "settings": "cited from earlier work"}, "[5]": {"target": "IP (Homo sapiens, UniProt P43119)", "sequence (P43119 whole entry)": "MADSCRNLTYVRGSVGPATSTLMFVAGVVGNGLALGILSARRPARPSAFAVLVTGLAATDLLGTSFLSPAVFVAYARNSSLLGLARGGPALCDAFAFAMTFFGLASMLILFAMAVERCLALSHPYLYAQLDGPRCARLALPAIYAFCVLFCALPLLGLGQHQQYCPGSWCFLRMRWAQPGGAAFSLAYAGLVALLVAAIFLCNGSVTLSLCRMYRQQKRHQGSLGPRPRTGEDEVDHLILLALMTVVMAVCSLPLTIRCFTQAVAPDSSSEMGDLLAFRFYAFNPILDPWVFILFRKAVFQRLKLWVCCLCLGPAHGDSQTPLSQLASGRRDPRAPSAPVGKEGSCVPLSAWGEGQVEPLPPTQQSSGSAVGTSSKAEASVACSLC", "settings": "cited from earlier work"}, "[6]": {"tested_on": "LPS-activated human macrophages", "settings": "100 nM; cited from earlier work"}}}
{"smiles": "CCCCc1nn(-c2ccccc2C(F)(F)F)c(=O)n1Cc1ccc(-c2ccccc2S(=O)(=O)NC(=O)c2sccc2C)cc1", "note": "[L-161, 982, N-[[4′-[[3-Butyl-1,5-dihydro-5-oxo-1-[2-(trifluoromethyl)phenyl]-4H-1,2,4-triazol-4-yl]methyl][1,1′-biphenyl]-2-yl]sulfonyl]-3-methyl-2-thiophenecarboxamide]", "values": [{"measurement": "CFUs of S. aureus, biofilm formation", "setting": "[1]; 6.25 to 25 μg/ml", "result": "significantly reduced"}, {"measurement": "metabolic activity (XTT) during biofilm formation", "setting": "[1]; all concentrations tested, 24 h", "result": "significantly inhibited"}, {"measurement": "CFUs of S. aureus, biofilm formation", "setting": "[1]; concentrations >50 μg/ml", "result": "no viable cells were recovered"}, {"measurement": "effect of thiourea on growth inhibition", "setting": "[2]", "result": "did not alleviate"}, {"measurement": "hemolytic activity, zones of clearance on blood agar", "setting": "[3]", "result": "significantly reduced zones of clearance"}, {"measurement": "Ki", "setting": "[4]", "result": 1.9, "unit": "µM"}, {"measurement": "Ki", "setting": "[5]", "result": 6.7, "unit": "µM"}, {"measurement": "effect on anti-inflammatory action of PGE2", "setting": "[6]", "result": "reverses the anti-inflammatory action of PGE2"}]}
